{"source": "the RepoRT retention time repository (doi:10.1021/acs.analchem.7b00925)", "assay": "HILIC, Merck SeQuant ZIC-HILIC, 100 × 2.1 mm, 3.5 µm, 25 °C, 0.3 mL/min, estimated dead time 0.73 min; A: water + 0.1% formic acid, pH 3; B: acetonitrile + 0.1% formic acid, pH 3; gradient (min/%B) 0/95 1.5/95 13.5/40 15.5/40 29.7/25 33.5/25 34.5/95 41.5/95", "details": "stereoisomer not certain"}
{"smiles": "COc1cc(/C=C/C(=O)O)ccc1O", "note": "[trans-Ferulic acid]", "values": [{"measurement": "LC retention time", "value": 1.39, "unit": "min"}]}
